From EP0080940B1, “Derivatives of 2-phenyl-morpholine and medical compositions” (LABORATOIRE L. LAFON Société anonyme dite:, priority 1981, dated 1983)
Like-named read-outs stand apart in the source and are kept apart here.

How the values were obtained:
Assay type in all cases: in vivo
[1] = Acute toxicity by the i.p. route (DL-0, DL-50); conditions: mouse, in vivo, ip; souris mâle, voie i.p.
Procedure: (§1) On a résumé ci-après les résultats des essais qui ont été entrepris chez l'animal avec le CRL 40914, ce produit étant administré, sauf indications contraires, en solution dans l'eau (à pH 5) par voie intrapéritonéale sous un volume de 20 ml/kg chez la souris mâle et de 5 ml/kg chez le rat mâle.
(§2) Chez la souris mâle, la DL-0 (dose maximale non mortelle) par voie i.p. est supérieure à 128 mg/kg.
(§3) On a résumé ci-après les résultats des essais qui ont été entrepris chez l'animal avec le CRL 40915, les modalités opératoires étant celles données ci-dessus pour le CR L 40914.
(§4) Chez la souris mâle, la DL-0 (dose maximale non mortelle) par voie i.p. est supérieure à 256 mg/kg, et la DL-50 par voie i.p. est de l'ordre de 500 mg/kg environ.

souris mâle = assay: Acute toxicity by the i.p. route (DL-0, DL-50); conditions: voie i.p.
Procedure: as §1, §2, §3, §4

souris [2] = assay: Global behaviour and reactivity, mouse
Procedure: as §1
(§5) Des lots de 3 animaux sont observés avant, puis 15 min, 30 min, 1 h, 2 h, 3 h et 24 h après l'administration de CRL 40914. On observe ce qui suit:
as §3

rat = assay: Global behaviour and reactivity, rat; conditions: rat
Procedure: as §1, §5, §3

souris [3] = assay: Interaction with apomorphine, mouse
Procedure: Des lots de 6 souris reçoivent le CRL 40914 une demi-heure avant l'injection sous-cutanée d'apomorphine, à la dose de 1 mg/kg ou 16 mg/kg.
as §3

rats [4] = assay: Interaction with apomorphine, rat; conditions: rat
Procedure: Le CRL 40914 est administré aux rats une demi-heure avant l'injection sous-cutanée de 0,5 mg/kg d'apomorphine.
as §3

rats [5] = assay: Interaction with amphetamine; conditions: rat
Procedure: L'amphétamine (2 mg/kg) est injectée par voie intrapéritonéale à des lots de 12 rats, une demi-heure après l'administration de CRL 40914.
as §3

souris [6] = assay: Interaction with reserpine; conditions: 128 mg/kg
Procedure: Quatre heures après l'injection intrapéritonéale de 2,5 mg/kg de réserpine, des lots de 6 souris reçoivent le CRL 40914.
as §3

souris [7] = assay: Interaction with oxotremorine
Procedure: Le CRL 40914 est administré à des lots de 6 souris une demi-heure avant l'injection intrapéritonéale de 0,5 mg/kg d'oxotrémorine.
as §3

souris [8] = assay: Four plates test, traction and electroshock; conditions: 32 mg/kg et 128 mg/kg
Source text: Le test est pratiqué sur des lots de 10 souris, une demi-heure après l'administration de CRL 40914.
as §3

souris [9] = assay: Action on spontaneous motility (actimeter); conditions: 32 mg/kg et 128 mg/kg
Procedure: Une demi-heure après avoir reçu le CRL 40914, des souris sont placées en actimètre où leur motilité est enregistrée pendant 30 min.
as §3

souris [10] = assay: Motility reduced by habituation to the enclosure
Procedure: Après 18 h de séjour dans les actimètres, les souris (6 par dose, 12 témoins) reçoivent le CRL 40914. Elles sont aussitôt replacées dans leurs enceintes respectives et, une demi-heure plus tard, on enregistre leur motilité pendant 30 min.
as §3

souris [11] = assay: Motility reduced by hypoxic aggression
Procedure: Une demi-heure après avoir reçu le CRL 40914, les souris (10 par dose, 20 témoins) sont soumises à une anoxie hypobare aiguë [dépression de 600 mm Hg (soit environ 8 x10^4 pascals) en 90 s puis détente de 45 s] puis elles sont placées en actimètre où leur motilité est enregistrée pendant 10min.
as §3

souris [12] = assay: Asphyxic anoxia (gallamine triethiodide); conditions: 8 mg/kg, 32 mg/kg et 128 mg/kg, triiodoéthylate de gallamine
Procedure: Des lots de 10 souris reçoivent le CRL 40914 une demi-heure avant l'administration intrapéritonéale de 32 mg/kg de triiodoéthylate de gallamine (agent curarisant de référence).
as §3

souris [13] = assay: Interaction with yohimbine, temperature; conditions: yohimbine 0,5 mg/kg i.p. alone
Procedure: Des lots de 12 souris reçoivent une injection intrapéritonéale de 0,5 mg/kg de yohimbine, une demi-heure avant l'administration de CRL 40914.

souris [14] = assay: Interaction with yohimbine, spontaneous motility; conditions: yohimbine 0,5 mg/kg i.p. alone
Procedure: Des lots de 12 souris reçoivent la yohimbine (0,5 mg/kg i.p.) et le CRL 40914 respectivement 60 et 30 min avant d'être placées en actimètre où leur motilité est enregistrée pendant une demi-heure.

## Cc1ccccc1C1CN(C)CCO1 (stereo not shown) [CRL 40915, Chlorhydratede 2-o-tolyl-4-méthyl-morpholine]
[1]
  LD50: ~500 mg/kg
Souris mâle
  DL-0 (dose maximale non mortelle): > 256 mg/kg
Souris [2]; 2 mg/kg i.p.
  symptômes: pas de symptômes nets
Souris [2]; 8 mg/kg i.p.
  sédation: sédation fugace pendant 15 à 30 minutes
Souris [2]; 8 mg/kg i.p., pendant 1 heure
  hypothermie: -1,5 °C
Souris [2]; 32 mg/kg i.p.
  sédation: sédation pendant 1 heure
Souris [2]; 32 mg/kg i.p., pendant 1 heure
  hypothermie: -2,8 °C
Souris [2]; 128 mg/kg i.p.
  convulsions: convulsions pendant 15 minutes
  hyporéactivité au toucher: hyporéactivité au toucher pendant 15 minutes
  salivation et lacrymation: salivation et lacrymation pendant 30 minutes
  sédation: sédation avec diminution de la réaction d'agressivité pendant 2 heures
Souris [2]; 128 mg/kg i.p., pendant 2 heures
  hypothermie: -2,9 °C
rat; 1 mg/kg i.p.
  signes: pas de signes particuliers
rat; 4 mg/kg i.p.
  mydriase: mydriase modérée pendant 30 minutes
  sédation: sédation pendant 30 minutes
rat; 16 mg/kg i.p.
  mydriase: mydriase pendant 30 à 60 minutes
  piloérection: piloérection
  sédation: sédation pendant 1 à 2 heures
rat; 64 mg/kg i.p.
  mydriase: mydriase pendant 1 heure
  piloérection: piloérection pendant 1 heure
  sédation: sédation pendant 1 à 2 heures
rat; 64 mg/kg i.p., pendant 30 à 60 minutes
  hypothermie: -1,9 °C
Souris [3]; 32 mg/kg et 128 mg/kg
  action hypothermisante de l'apomorphine: s'oppose aux doses de 32 mg/kg et 128 mg/kg à l'action hypothermisante de l'apomorphine
Souris [3]; 128 mg/kg, faible dose (1 mg/kg) d'apomorphine
  indices de verticalisation et de stéréotypies (apomorphine): diminue les indices de verticalisation et de stéréotypies
Souris [3]; doses voisines de 32 mg/kg
  effet intrinsèque sur la température: effet hypothermisant intrinsèque
Rats [4]
  stéréotypies produites par l'apomorphine: ne modifie pas les stéréotypies produites par l'apomorphine
Rats [5]
  stéréotypies amphétaminiques: ne sont pas modifiées
Souris [6]
  hypothermie réserpinique: aggrevation de I-hypothermie réserpinique
  ptosis réserpinique: le ptosis déjà maximal n'est pas modifié
Souris [7]; 32 mg/kg et 128 mg/kg
  effet intrinsèque sur la température: effet hypothermisant intrinsèque
  hypothermie induite par l'oxotrémorine: s'oppose à l'hypothermie induite par l'oxotrémorine
Souris [7]; 128 mg/kg
  tremblements induits par l'oxotrémorine: semblent partiellement antagonisés
Souris [7]; oxotrémorine 0,5 mg/kg i.p.
  signes de stimulation cholinergique périphérique provoqués par l'oxotrémorine: laisse inchangés les signes de stimulation cholinergique périphérique
Souris [8]
  déficit moteur (traction): ne provoque pas de déficit moteur majeur
  effets convulsivants de l'électrochoc: s'oppose aux effets convulsivants de l'électrochoc
  nombre de passages punis (test des quatre plaques): diminue le nombre de passages punis
Souris [9]
  activité motrice spontanée: diminution importante de l'activité motrice spontanée
Souris [10]
  activité motrice chez la souris habituée à son enceinte: ne provoque pas de reprise de l'activité
Souris [11]
  récupération motrice après agression hypoxique: n'entraîne pas d'amélioration de la récupération motrice
Souris [11]; 32 mg/kg et 128 mg/kg
  récupération motrice après agression hypoxique: aggravation
Souris [12]
  apparition des convulsions et de la mort (anoxie asphyxique): retarde l'apparition des convulsions et de la mort

## COC(=O)[C@@H]1[C@H]2C[C@H]3c4[nH]c5ccccc5c4CCN3C[C@@H]2CC[C@@H]1O [yohimbine, reference compound]
Souris [13]
  température rectale: ne modifie pas la température rectale
Souris [14]
  activité motrice spontanée: ne modifie pas l'activité motrice spontanée
